Results published in patent US20240208972A1, “LRRK2 INHIBITORS AND USES THEREOF” (NEURON23, INC., priority 2022, published 2024).

Columns and labels:
Caco-2 cells = test: Caco-2 bidirectional permeability; format: in vitro ADME; conditions: for Caco-2 A2B (10^−6 cm/s): A to B; for Caco-2 A2B (10^−6 cm/s) / Caco-2 B2A (10^−6 cm/s): HBSS pH 7.4, 2 hours; for Caco-2 B2A (10^−6 cm/s): B to A; for Caco-2 ER: Efflux Ratio=Papp (BA)/Papp (AB)
Description: The compounds disclosed herein were tested in vitro on CaCo2 cell penetration according to the following procedures.
Test compounds were prepared in dimethyl sulfoxide (DMSO).
Caco-2 cells purchased from ATCC were seeded onto […] (PET) in 96-well Corning Insert plates at 1×10^5 cells/cm^2. The media were refreshed every 4 to 5 days until the 21st to 28th day for confluent cell monolayer formation.
Experiments were run in duplicate using a HBSS transport buffer containing 10 mM HEPES at pH 7.4. The test article TEST COMPOUND was tested bi-directionally at […] concentrations, the control compound digoxin was tested bi-directionally at 10 μM, and nadolol and metoprolol were tested at 2.0 μM in the A to B direction. Final DMSO concentrations were adjusted to less than 1%. The plates were incubated for 2 hours in a CO2 incubator at 37±1° C. with 5% CO2 at saturated humidity without shaking. Following incubation, samples were mixed with acetonitrile containing internal standard and centrifuged at 3200×g for 10 minutes. Then 200 μL of supernatant was taken from all samples. For TEST COMPOUND and digoxin, the supernatant was diluted with 200 μL of ultra-pure water and for nadolol and metoprolol, the supernatant was diluted with 600 μL of ultra-pure water. All samples were analyzed by LC-MS/MS. Concentrations of TEST COMPOUND and control compounds were determined in starting solutions, donor well solutions, and receiver well solutions using peak area ratios (PAR) of analyte to internal standard. After the transport assay, a lucifer yellow rejection assay was run to determine the Caco-2 cell monolayer integrity.
The apparent permeability (Papp), the % recovery and the efflux ratio were calculated as follows: • 1. Papp=(dCr/dt)×Vr/(A×C0) • 2. % Recovery=100×[(Vr×Cr)+(Vd×Cd)]/(Vd×C0) • 3. Efflux Ratio=Papp (BA)/Papp (AB) • Where: • dCr/dt is the slope of the cumulative concentration in the receiver compartment versus time (mM/s). • Vr and Vd is the volume in the receiver and donor compartments (0.075 mL on the apical side, 0.25 mL on the basolateral side), respectively. • A is the surface area of the cell monolayer (0.0804 cm^2). • C0 is the measured donor concentrations (μM) at the beginning of the experiment. • Cd and Cr are the final measured concentrations in the donor and receiver compartments, respectively.
The cell monolayer tight junction integrity assay was conducted after completion of the transport assay by adding Lucifer Yellow (LY) to the apical wells at 100 μM and incubating the cells for 30 minutes. Following incubation, tight junction integrity was assessed from LY concentrations in the basolateral compartment (receiver well) and the apical compartment (donor well) using fluorescence detection as follows: […]

[1] = Human hepatocyte stability, in vitro h-Hept CLpredict; format: in vitro ADME; conditions: cryopreserved hepatocytes, predicted hepatic clearance, cells without asterisk, read-out: hHep Cl
Description: The compounds disclosed herein were tested in vitro on human hepatocyte for in vitro h-Hept CLpredict according to the following procedures. • 1. Compound sock solutions were prepared by dissolving test compound and positive control in dimethyl sulfoxide (DMSO) at a concentration of 10 mM. Stock solutions were then diluted to 100 μM solutions by combining 198 μL of 50% acetonitrile/50% water with 2 μL of the 10 mM stock stock in separate conical tubes. • 2. Cryopreserved hepatocytes were prepared as follows: Incubation medium (William's E Medium supplemented with GlutaMAX) and hepatocyte thawing medium were placed in a 37° C. water bath and allowed to warm for at least 15 minutes prior to use. Cryopreserved hepatocytes were removed from storage, ensuring that vials remained at cryogenic temperatures until thawed. Cells were thawed by placing the vials in a 37° C. water bath and gently shaking the vials for 2 minutes. After thawing was completed, vials were sprayed with 70% ethanol and transferred to a biosafety cabinet. Hepatocytes were transferred into 50 mL conical tube containing thawing medium using wide-bore pipette tips. Tubes were placed into a centrifuge and spun at 100 g for 10 minutes. Then thawing medium was aspirated and hepatocytes were resuspended in enough incubation medium to yield−1.5×10^6 cells/mL. Cells were counted using acridine orange and propidium iodide (AO/PI) staining, and the viable cell density was determined. Cells were diluted with incubation medium to a working cell density of 0.5×10^6 viable cells/mL. • 3. To determine hepatocyte stability, 198 μL of hepatocytes were transferred into each well of a 96-well non-coated plate. Plates were placed in an incubator to allow the hepatocytes to warm for 10 minutes. • 4. The reaction was started by transferring 2 μL of the 100 μM test compound or positive control solution into respective wells of the 96-well non-coated plates. Plates were returned to the incubator until 25 μL aliquots of well contents were sampled at time points of 0, 15, 30, 60, 90 and 120 minutes. The aliquots were then mixed with 6 volumes (150 μL) of acetonitrile containing internal standard, IS (100 nM alprazolam, 200 nM caffeine and 100 nM tolbutamide) to terminate the reaction and vortexed for 5 minutes. After centrifuging the samples for 45 minutes at 3,220 g, aliquots of 100 μL of the supernatant were taken and diluted with 100 μL of ultra-pure water. The mixture was used for LC/MS/MS analysis. All incubations were performed in duplicate.
All calculations were carried out using Microsoft Excel. Peak area ratios (PAR) were determined from extracted ion chromatograms. The in vitro half-life (t1/2) of parent compound was determined by regression analysis of the percent parent disappearance vs. time curve as follows:
The in vitro half-life (in vitro t1/2) was determined from the slope value:
Conversion of the in vitro t1/2 (in minutes) into the in vitro intrinsic clearance (in vitro CLint, in μL/min/1×10^6 cells) was done using the following equation (mean of duplicate determinations): […]
The scaled-up intrinsic clearance (CLint, mL/min/kg), predicted hepatic clearance (CLH, mL/min/kg) and hepatic extraction ratio (ER) were calculated using the following equations:
CLint=(0.693/t1/2)*(1/(hepatocyte concentration (0.5*10^6 cells/mL))*scaling factors (Table (A)
• CLHept-predict=(QH*Scaled-up CLint*fub)/(QH+Scaled-up CLint*fub) • ER=CLH/QH • Where: • V=incubation volume (0.2 mL) • N=number of hepatocytes per well (0.1*10^6 cells) • QH=hepatic blood flow (mL/min/kg) (Table (A)
• fub=fraction of unbound drug in plasma, assumed to be 1 • Values used for calculation of the predicted hepatic clearance parameters data processing rules are outlined in the following tables (A) (B)

[2] = target: T1, wt human LRRK2, catalytic site (Homo sapiens, UniProt Q5S007); test: TR-FRET LanthaScreen Tb Kinase Activity Assay, LRRK2 kinase inhibition; format: biochemical; conditions: 2 nM wt human LRRK2, 400 nM peptide, 38 μM ATP
T1 construct: wt human LRRK2, catalytic site, catalytic site (ThermoFisher/USA); purchased ThermoFisher
T1 sequence (Q5S007 1879-2138 limits assumed): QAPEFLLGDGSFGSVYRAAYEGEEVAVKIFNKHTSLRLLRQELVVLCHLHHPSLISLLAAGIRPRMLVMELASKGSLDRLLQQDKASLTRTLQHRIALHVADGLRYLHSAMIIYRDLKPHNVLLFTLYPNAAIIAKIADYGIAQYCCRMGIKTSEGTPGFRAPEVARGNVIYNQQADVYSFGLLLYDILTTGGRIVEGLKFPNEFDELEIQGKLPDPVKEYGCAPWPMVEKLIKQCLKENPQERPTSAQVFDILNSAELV
Description: The compounds disclosed herein were tested for their inhibitory effect on LRRK2 kinase according to the following procedures.
The protocol for basic TR-FRET LanthaScreen Tb Kinase Activity Assay inhibitor studies is as follows. LanthaScreen Kinase Activity Assays (ThermoFisher/USA) to evaluate inhibitors were performed by addition of 100 nL of test compound in the corresponding DMSO dilutions/5 L of kinase/fluorescein-ERM(LRRKtide) peptide mixture, Compound & kinase were pre-incubated for 15 minutes, then 5 μl of ATP into 384 well small volume plates. After incubation for 120 minutes at room temperature, the detection reagents containing Tb-anti-pLRRKtide antibody were added to monitor the phosphrylation level of peptide. Then, after 60 min minutes incubation at room temperature plates were read in Envision. Data analysis of emission ratios was according to the LanthaScreen Tb Kinase Activity Assay protocol.
Kinase and assay components were adjusted to final concentrations according to the kit protocol. For LRRK2: 2 nM wt human LRRK2, catalytic site, catalytic site (ThermoFisher/USA), 400 nM peptide, 38 μM ATP in 1× Kinase Buffer A.
Basic protocol for TR-FRET LanthaScreen Tb Kinase Activity Assay inhibitor studies involved two steps: Enzymatic step: Addition of 100 nl of test compound in corresponding DMSO dilutions, 5 μl of kinase/substrate mixture, 5 μl of ATP into 384 well small volume plates. Incubation for 120 minutes at room temperature.
Detection step: Addition of 10 μl EDTA & antibody, read plate after 60 minutes. Data analysis of emission ratios according to KinEASE assay protocol.
Kinase and assay components were adjusted to final concentrations according to the kit protocol.

| SMILES | Caco-2 A2B (10^−6 cm/s) (Caco-2 cells) | Caco-2 B2A (10^−6 cm/s) (Caco-2 cells) | Caco-2 ER (Caco-2 cells) | CLhep predicted at 1 µM [1] [mL/min/kg] | IC50 [2] [nM] |
| --- | --- | --- | --- | --- | --- |
| Cc1cc(-c2ccc3c(c2)-c2[nH]nc(C)c2N=C(c2c(F)cccc2F)N3)ccn1 [Example 52, 5-(2,6-difluorophenyl)-3-methyl-9-(2-methyl-4-pyridyl)-1,6-dihydropyrazolo [4,3-d] [1, 3] benzodiazepine] | H (H (High permeability)”: A2B (B2A)>5) | H (H (High permeability)”: A2B (B2A)>5) | N (N (Non-substrate)”: ER<2.5) | 6.3 to 14.7 | < 2 |
| Cc1n[nH]c2c1N=C(c1c(F)cccc1F)Nc1ccc(-c3ccn(C(F)F)n3)cc1-2 [Example 14, 9-[1-(difluoromethyl)pyrazol-3-yl]-5-(2,6-difluorophenyl)-3-methyl-1,6-dihydropyrazolo[4,3-d][1,3]benzodiazepine] | H (H (High permeability)”: A2B (B2A)>5) | H (H (High permeability)”: A2B (B2A)>5) | N (N (Non-substrate)”: ER<2.5) | > 14.7 | < 2 |
| COC[C@@H]1CN(c2cc3c(c(C)n2)NC(c2c(F)cccc2F)=Nc2c(C)n[nH]c2-3)CCO1 [Example 46, (2S)-4-[8-(2,6-difluorophenyl)-5,11-dimethyl-3,4,7,9,12-pentazatricyclo[8.4.0.02,6]tetradeca-1(10),2(6),4,7,11,13-hexaen-13-yl]-2-(methoxymethyl)morpholine] | H (H (High permeability)”: A2B (B2A)>5) | H (H (High permeability)”: A2B (B2A)>5) | N (N (Non-substrate)”: ER<2.5) | < 6.3 | < 2 |
| Cc1n[nH]c2c1N=C(c1c(F)cccc1F)Nc1c-2cc(N2C[C@H](C)O[C@@H](C)C2)nc1C [Example 39, (2S,6S)-4-[8-(2,6-difluorophenyl)-5,11-dimethyl-3,4,7,9,12-pentazatricyclo[8.4.0.02,6]tetradeca-1(10),2(6),4,7,11,13-hexaen-13-yl]-2,6-dimethyl-morpholine] | H (H (High permeability)”: A2B (B2A)>5) | H (H (High permeability)”: A2B (B2A)>5) | N (N (Non-substrate)”: ER<2.5) | 6.3 to 14.7 | < 2 |

Other lines, results leading:

| Caco-2 A2B (10^−6 cm/s) (Caco-2 cells) | Caco-2 B2A (10^−6 cm/s) (Caco-2 cells) | Caco-2 ER (Caco-2 cells) | CLhep predicted at 1 µM [1] [mL/min/kg] | IC50 [2] [nM] | SMILES |
| --- | --- | --- | --- | --- | --- |
| H (H (High permeability)”: A2B (B2A)>5) | H (H (High permeability)”: A2B (B2A)>5) | N (N (Non-substrate)”: ER<2.5) | 6.3 to 14.7 | < 2 | Cc1n[nH]c2c1N=C(c1c(F)cccc1F)Nc1cnc(N3CC(F)(F)C3)cc1-2 [Example 2, 13-(3,3-difluoroazetidin-1-yl)-8-(2,6-difluorophenyl)-5-methyl-3,4,7,9,12-pentazatricyclo[8.4.0.02,6]tetradeca-1(10),2(6),4,7,11,13-hexaene] |
| H (H (High permeability)”: A2B (B2A)>5) | H (H (High permeability)”: A2B (B2A)>5) | N (N (Non-substrate)”: ER<2.5) | > 14.7 | < 2 | Cc1n[nH]c2c1N=C(c1c(F)cccc1F)Nc1cnc(N3CC4CC4C3)cc1-2 (stereo not shown) [Example 56, 13-(3-azabicyclo[3.1.0]hexan-3-yl)-8-(2,6-difluorophenyl)-5-methyl-3,4,7,9,12-pentazatricyclo[8.4.0.02,6]tetradeca-1(10),2(6),4,7,11,13-hexaene] |
| H (H (High permeability)”: A2B (B2A)>5) | H (H (High permeability)”: A2B (B2A)>5) | N (N (Non-substrate)”: ER<2.5) | 6.3 to 14.7 | < 2 | Cc1n[nH]c2c1N=C(c1c(F)cccc1F)Nc1cnc(N3CCC(F)CC3)cc1-2 [Example 3, 8-(2,6-difluorophenyl)-13-(4-fluoro-1-piperidyl)-5-methyl-3,4,7,9,12-pentazatricyclo[8.4.0.02,6]tetradeca-1(10),2(6),4,7,11,13-hexaene] |
| H (H (High permeability)”: A2B (B2A)>5) | H (H (High permeability)”: A2B (B2A)>5) | N (N (Non-substrate)”: ER<2.5) | 6.3 to 14.7 | < 2 | Cc1ccc(-c2ccc3c(c2)-c2[nH]nc(C)c2N=C(c2c(F)cccc2F)N3)cn1 [Example 53, 5-(2,6-difluorophenyl)-3-methyl-9-(6-methyl-3-pyridyl)-1,6-dihydropyrazolo[4,3-d][1,3]benzodiazepine] |
